Laboratory results as given in patent US5958885A, “Peptide and formulations thereof inhibiting elevations of triglyceride levels in blood” (Hankyu Kyoei Bussan Co., Ltd., priority 1996, dated 1999).
Residues, ends and D or L forms follow the SMILES beside them.

What was measured:
[1] = system: serum TG levels; test: Serum TG elevation inhibiting action, peptide given 1 hr after olive oil; format: in vivo, male ICR mice; conditions: for ID50 (dose which inhibits in vivo 50% of serum TG elevations): olive oil 18 g/kg oral, peptide oral 1 hr later, serum TG another 1 hr later; for Specific Activity (ratio to mg protein): relative to globin proteolysate (GD) = 1, Table 3
Procedure: Subsequently, serum TG elevation inhibiting action was examined as described below on the peptide (VVYP) having the amino acid sequence shown in SEQ ID NO: 1 synthesized in Example 2, peptides Val-Tyr-Pro (vYP) and Val-Thr-Leu (VTL) synthesized in the same manner as described in Example 2, and the globin proteolysate (GD) obtained in the Reference Example.
Olive oil (18 g/kg body weight) was administered orally to male ICR mice (6 week old, body weight: 25-28 g) which fasted for an overnight. One hour thereafter, an aqueous solution of the above peptide (0.3 ml/mouse) was administered orally. […] A dose-response curve was obtained from the dose of the peptide and inhibition rate of TG, and the 50% inhibition dose ID50 was calculated. Then, the activity of individual peptides was compared with each other.

[2] = system: pepsin (artificial gastric juice); test: In vitro stability against digestive enzymes, artificial gastric juice; format: in vitro ADME; conditions: for Ratio of recovery: after pepsin in 0.1 N HCl, 37° C., 4 hr, HPLC peak area, before treatment = 100
Procedure: (§1) In vitro stability test against digestive enzymes was conducted on the peptide (VVYP) having the amino acid sequence shown in SEQ ID NO: 1 synthesized in Example 2 and peptides Val-Tyr-Pro (VYP) and Val-Thr-Leu (VTL) synthesized in the same manner as described in Example 2.
(§2) Briefly, to 127.5 ml of 0.1 N HCl solution of the above VVYP, VYP or VTL, 22.5 ml of 0.67 mg/ml pepsin (artificial gastric juice) dissolved in 0.1 N HCl was added and reacted at 37° C. for 4 hr. Thereafter, 75 ml of 0.53 mg/ml pancreatin (artificial pancreatic juice) dissolved in […] of 0.5 N borate buffer (pH 8.0) was added thereto and reacted at 37° C. for 2 hr. Samples before digestion with artificial gastric juice, after digestion with artificial gastric juice, and after digestion with artificial pancreatic juice were analyzed under the following conditions.
(§3) Equipment used: HPLC (Waters; LC Modulel)
(§4) Column: SuperPac Pep-S, 5 μm (PHARMACIA K.K.)
(§5) Mobile phase A: 0.1% trifluoroacetic acid B: Acetonitrile-water (50:50, containing 0.1% tri-fluoroacetic acid)
(§6) Flow rate: 0.8 ml/min (VYP, VTL), 0.4 ml/min (VVYP)
(§7) Detection wavelength: 220 nm
(§8) Temperature: room temperature
(§9) Amount applied: 20 μl of 50-fold dilution

[3] = system: pancreatin (artificial pancreatic juice); test: In vitro stability against digestive enzymes, artificial gastric juice then artificial pancreatic juice; format: in vitro ADME; conditions: for HPLC peak of the peptide after digestion: after digestion with artificial gastric and pancreatic juices; for Ratio of recovery: after pepsin 37° C. 4 hr, then pancreatin pH 8.0, 37° C., 2 hr, HPLC peak area, before treatment = 100
Procedure: as §1, §2, §3, §4, §5, §6, §7, §8, §9

[4] = system: male and female ICR mice; test: Toxicological study, oral administration; format: in vivo; conditions: 10 g/kg body weight or more (maximum possible dose)
Procedure: The peptide (VVYP) having the amino acid sequence shown in SEQ ID NO: 1 synthesized in Example 2 was administered orally to male and female ICR mice in an amount of 10 g/kg body weight or more (maximum possible dose).

SMILES | ID50 (dose which inhibits in vivo 50% of serum TG elevations) [1] | Specific Activity (ratio to mg protein) [1] | HPLC peak of the peptide after digestion ([2]; after digestion with artificial gastric juice) | Ratio of recovery [2] | HPLC peak of the peptide after digestion [3] | Ratio of recovery [3] | Death [4]
CC(C)C[C@H](NC(=O)[C@@H](NC(=O)[C@@H](N)C(C)C)[C@@H](C)O)C(=O)O [VTL, Val-Thr-Leu] (H-Val-Thr-Leu-OH) | 0.05 mg protein/mouse | 448 | disappeared | – | – | – | –
CC(C)[C@H](N)C(=O)N[C@H](C(=O)N[C@@H](Cc1ccc(O)cc1)C(=O)N1CCC[C@H]1C(=O)O)C(C)C [VVYP, Val-Val-Tyr-Pro] (H-VVYP-OH) | – | 6500 | – | 108 | remained | 101 | no death occurred
CC(C)[C@H](N)C(=O)N[C@@H](Cc1ccc(O)cc1)C(=O)N1CCC[C@H]1C(=O)O [VYP, Val-Tyr-Pro] (H-Val-Tyr-Pro-OH) | 0.02 mg protein/mouse | 1130 | – | 108 | remained | 109 | –
